Test results taken from publication PMC5458547, “Discovery of first-in-class reversible dual small molecule inhibitors against G9a and DNMTs in hematological malignancies” (Nature Communications, 2017).
pIC50: −log10 of the molar value.

Experiments:
1205-LU = experiment: Cell proliferation assay (MTS); type: cell-based; conditions: Homo sapiens, Melanoma
MM1.R = experiment: Cell proliferation assay (MTS); type: cell-based; conditions: Homo sapiens, MM.1R
Human HDAC1 = molecular target: T1, Human HDAC1 (Homo sapiens, UniProt Q13547); experiment: HDAC1 enzyme activity assay; type: biochemical
T1 construct: purchased DiscoverX KINOMEscan (kinases); BPS Bioscience (epigenetic targets)
T1 sequence (Q13547 whole entry): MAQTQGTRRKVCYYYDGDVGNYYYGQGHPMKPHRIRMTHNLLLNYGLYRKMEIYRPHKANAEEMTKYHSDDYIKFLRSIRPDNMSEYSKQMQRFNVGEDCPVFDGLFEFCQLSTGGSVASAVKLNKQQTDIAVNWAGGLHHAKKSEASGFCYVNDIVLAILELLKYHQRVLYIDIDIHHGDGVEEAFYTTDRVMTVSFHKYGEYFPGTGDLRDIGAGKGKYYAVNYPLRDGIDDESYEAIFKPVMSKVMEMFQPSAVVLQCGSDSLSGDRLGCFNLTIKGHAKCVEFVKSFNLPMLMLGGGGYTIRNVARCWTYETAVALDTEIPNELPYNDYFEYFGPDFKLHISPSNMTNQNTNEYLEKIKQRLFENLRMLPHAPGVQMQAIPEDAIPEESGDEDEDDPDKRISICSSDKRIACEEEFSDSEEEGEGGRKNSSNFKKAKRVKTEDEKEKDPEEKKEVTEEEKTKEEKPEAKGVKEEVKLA

JMJD2D = molecular target: T2, JMJD2D (Homo sapiens, UniProt Q6B0I6); experiment: Epigenetics selectivity panel (BPS Bioscience); type: biochemical
T2 construct: purchased DiscoverX KINOMEscan (kinases); BPS Bioscience (epigenetic targets)

697 = experiment: Cell proliferation assay (MTS); type: cell-based; conditions: Homo sapiens; ALL, 48 h
in vitro = type: cell-based; conditions: human
Procedure: Cell viability was determined by measuring the concentration of cellular adenosine triphosphate (ATP) using the ATP1Step Kit as described by the manufacturer (Perkin-Elmer). PBMCs were isolated following the regular density gradient centrifugation procedure with Ficoll. Details are provided in Supplementary Information. […]
each test plate followed by incubation for 10 min at room temperature on an orbital shaker. ATP concentration was determined by reading chemical luminescence using the Envision plate reader (PerkinElmer). The percentage of viable cells relative to the non-drug treated controls was determined for […]
Cells were plated in 96-well black microplates at 100,000 cells/well density with DMEM medium (containing 10% FBS and antibiotics) and were incubated at 37 °C (5% CO2, 95% humidity) for 24 h. […] Following this 72 h exposure to test compounds, cell viability in each well was determined by measuring the concentration of cellular adenosine triphosphate (ATP) using the ATP1Step Kit as described by the manufacturer (Perkin-Elmer). […] ATP concentration was determined by reading chemical luminescence using the Envision plate reader (PerkinElmer). […]
sampler temperature was set at 7 °C and column temperature at 50 °C. For detection and quantification, the electrospray ionization operated in the positive mode, and the collision gas used was ultra-pure argon at a flow rate of 0.15 mL min−1. […]

COLO-205 = experiment: Cell proliferation assay (MTS); type: cell-based; conditions: Homo sapiens, Colorectal
PRMT6 = molecular target: T3, PRMT6 (Homo sapiens, UniProt Q96LA8); experiment: Epigenetics selectivity panel (BPS Bioscience); type: biochemical
T3 construct: purchased BPS Bioscience (contract panel)
T3 sequence (Q96LA8 whole entry): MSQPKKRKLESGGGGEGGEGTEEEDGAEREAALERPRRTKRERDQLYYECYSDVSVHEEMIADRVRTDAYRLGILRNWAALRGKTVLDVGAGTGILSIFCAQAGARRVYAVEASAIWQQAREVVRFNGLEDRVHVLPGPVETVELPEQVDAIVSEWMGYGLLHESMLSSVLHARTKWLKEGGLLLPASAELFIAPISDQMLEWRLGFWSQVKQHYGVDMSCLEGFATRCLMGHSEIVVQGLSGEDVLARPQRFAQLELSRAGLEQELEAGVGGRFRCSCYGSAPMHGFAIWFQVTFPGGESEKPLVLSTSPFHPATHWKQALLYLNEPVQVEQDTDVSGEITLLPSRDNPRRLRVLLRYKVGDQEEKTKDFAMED

JMJD2C = molecular target: T4, JMJD2C (Homo sapiens, UniProt Q9H3R0); experiment: Epigenetics selectivity panel (BPS Bioscience); type: biochemical
T4 construct: purchased DiscoverX KINOMEscan (kinases); BPS Bioscience (epigenetic targets)

cytochrome P450 2D6 = molecular target: T5, cytochrome P450 2D6 (Homo sapiens, UniProt P10635); type: in vitro ADME; conditions: microsomes, 10 min, 10 µM
T5 construct: tissue BD Gentest; host or cells: human liver microsomes
Procedure: (§1) Details are provided in Supplementary Information. […]
(§2) 3A4) was evaluated in human liver microsomes at Wuxi (http://www.wuxi.com/). Test compounds (10 µM) and the corresponding substrates for each P450 isoform (20 µL) were incubated with 140 µL liver […]
(§3) reaction was terminated by adding 400 µL cold stop solution (200 ng/mL tolbutamide in ACN) and samples were centrifuged at 4000 rpm for 20 minutes. Supernatants were analyzed by LC-MS/MS (Shimadzu LC 20-AD - API 4000), using peak area ratio of analyte/internal standard. Test compounds and positive controls were tested in duplicates. The percentage of inhibition was calculated as the ratio of substrate metabolite detected in treated and non-treated wells. […]

cytochrome P450 2C9 = molecular target: T6, cytochrome P450 2C9 (Homo sapiens, UniProt P11712); type: in vitro ADME; conditions: microsomes, 10 min, 10 µM
T6 construct: tissue BD Gentest; host or cells: human liver microsomes
T6 sequence (P11712 whole entry): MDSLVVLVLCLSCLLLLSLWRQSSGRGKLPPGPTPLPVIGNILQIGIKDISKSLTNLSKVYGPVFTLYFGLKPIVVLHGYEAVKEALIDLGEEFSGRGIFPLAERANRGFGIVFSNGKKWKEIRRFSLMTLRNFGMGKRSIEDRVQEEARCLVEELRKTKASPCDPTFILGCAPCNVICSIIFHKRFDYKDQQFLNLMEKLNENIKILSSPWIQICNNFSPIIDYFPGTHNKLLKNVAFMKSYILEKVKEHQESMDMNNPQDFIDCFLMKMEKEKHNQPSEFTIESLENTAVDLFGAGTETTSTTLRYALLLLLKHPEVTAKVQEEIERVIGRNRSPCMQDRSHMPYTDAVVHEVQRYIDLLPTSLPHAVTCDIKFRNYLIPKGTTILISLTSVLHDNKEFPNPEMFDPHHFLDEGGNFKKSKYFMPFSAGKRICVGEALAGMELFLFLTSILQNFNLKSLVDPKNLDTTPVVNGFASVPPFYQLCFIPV
Procedure: as §1, §2, §3

cytochrome P450 2C19 = molecular target: T7, cytochrome P450 2C19 (Homo sapiens, UniProt P33261); type: in vitro ADME; conditions: microsomes, 10 min, 10 µM
T7 construct: tissue BD Gentest; host or cells: human liver microsomes
Procedure: as §1, §2, §3

cytochrome P450 3A4 = molecular target: T8, cytochrome P450 3A4 (Homo sapiens, UniProt P08684); type: in vitro ADME; conditions: microsomes, 10 min, 10 µM
T8 construct: tissue BD Gentest; host or cells: human liver microsomes
T8 sequence (P08684 whole entry): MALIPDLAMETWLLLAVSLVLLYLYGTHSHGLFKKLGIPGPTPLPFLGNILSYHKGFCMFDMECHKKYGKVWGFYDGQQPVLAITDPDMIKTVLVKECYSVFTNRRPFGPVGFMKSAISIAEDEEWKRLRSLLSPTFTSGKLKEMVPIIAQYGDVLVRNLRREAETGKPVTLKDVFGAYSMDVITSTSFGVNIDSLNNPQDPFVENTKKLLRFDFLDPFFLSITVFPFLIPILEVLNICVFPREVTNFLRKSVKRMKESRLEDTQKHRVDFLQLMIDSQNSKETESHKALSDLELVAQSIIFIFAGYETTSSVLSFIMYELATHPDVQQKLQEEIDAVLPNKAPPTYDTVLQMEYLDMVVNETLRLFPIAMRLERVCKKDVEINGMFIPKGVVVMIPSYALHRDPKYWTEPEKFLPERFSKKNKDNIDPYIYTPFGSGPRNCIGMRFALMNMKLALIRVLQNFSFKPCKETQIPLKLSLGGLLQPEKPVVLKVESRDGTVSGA
Procedure: as §1, §2, §3

MY = experiment: Cell proliferation assay (MTS); type: cell-based; conditions: Homo sapiens; ALL, 48 h
U87-MG = experiment: Cell proliferation assay (MTS); type: cell-based; conditions: Homo sapiens, U-87 MG; Glioblastoma
CAKI-2 = experiment: Cell proliferation assay (MTS); type: cell-based; conditions: Homo sapiens, Renal
H1299 = experiment: Cell proliferation assay (MTS); type: cell-based; conditions: Homo sapiens, NCI-H1299; NSCLC
OPM2 = experiment: Cell proliferation assay (MTS); type: cell-based; conditions: Homo sapiens, OPM-2; MM
EZH2 = molecular target: T9, EZH2 (Homo sapiens, UniProt Q15910); experiment: Epigenetics selectivity panel (BPS Bioscience); type: biochemical
T9 construct: purchased DiscoverX KINOMEscan (kinases); BPS Bioscience (epigenetic targets)
T9 sequence (Q15910 whole entry): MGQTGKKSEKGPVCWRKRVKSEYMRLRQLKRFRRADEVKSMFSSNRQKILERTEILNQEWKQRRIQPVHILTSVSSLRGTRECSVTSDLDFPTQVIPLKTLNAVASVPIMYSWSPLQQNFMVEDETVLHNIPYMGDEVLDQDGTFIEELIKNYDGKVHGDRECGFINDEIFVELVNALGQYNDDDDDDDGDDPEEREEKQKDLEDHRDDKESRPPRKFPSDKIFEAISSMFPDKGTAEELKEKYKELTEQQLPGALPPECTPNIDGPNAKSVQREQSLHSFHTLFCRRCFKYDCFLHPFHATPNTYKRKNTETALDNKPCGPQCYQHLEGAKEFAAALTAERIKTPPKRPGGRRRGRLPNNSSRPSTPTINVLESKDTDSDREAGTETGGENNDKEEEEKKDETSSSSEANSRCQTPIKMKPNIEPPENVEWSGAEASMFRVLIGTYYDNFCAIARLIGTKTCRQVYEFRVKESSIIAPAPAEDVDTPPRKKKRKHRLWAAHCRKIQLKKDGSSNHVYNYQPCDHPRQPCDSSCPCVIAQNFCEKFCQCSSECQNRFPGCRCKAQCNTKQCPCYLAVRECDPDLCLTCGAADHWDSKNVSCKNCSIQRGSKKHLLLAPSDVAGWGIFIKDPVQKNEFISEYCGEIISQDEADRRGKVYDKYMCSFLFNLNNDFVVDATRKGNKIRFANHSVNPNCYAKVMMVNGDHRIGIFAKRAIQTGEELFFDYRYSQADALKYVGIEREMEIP
T9 sequence (O75530 whole entry partner): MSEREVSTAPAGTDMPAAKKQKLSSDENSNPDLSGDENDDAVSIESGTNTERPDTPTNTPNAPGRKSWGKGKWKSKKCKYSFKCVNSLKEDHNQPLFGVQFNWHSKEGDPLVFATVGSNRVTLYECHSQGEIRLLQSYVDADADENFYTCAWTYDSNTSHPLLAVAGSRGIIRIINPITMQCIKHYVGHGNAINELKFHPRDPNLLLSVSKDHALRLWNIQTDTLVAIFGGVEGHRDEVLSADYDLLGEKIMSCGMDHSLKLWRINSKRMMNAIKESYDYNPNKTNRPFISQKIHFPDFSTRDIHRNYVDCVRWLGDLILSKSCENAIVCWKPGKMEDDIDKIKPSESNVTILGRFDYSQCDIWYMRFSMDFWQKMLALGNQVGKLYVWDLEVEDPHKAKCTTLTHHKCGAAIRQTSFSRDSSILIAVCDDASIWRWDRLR
T9 sequence (Q15022 whole entry partner): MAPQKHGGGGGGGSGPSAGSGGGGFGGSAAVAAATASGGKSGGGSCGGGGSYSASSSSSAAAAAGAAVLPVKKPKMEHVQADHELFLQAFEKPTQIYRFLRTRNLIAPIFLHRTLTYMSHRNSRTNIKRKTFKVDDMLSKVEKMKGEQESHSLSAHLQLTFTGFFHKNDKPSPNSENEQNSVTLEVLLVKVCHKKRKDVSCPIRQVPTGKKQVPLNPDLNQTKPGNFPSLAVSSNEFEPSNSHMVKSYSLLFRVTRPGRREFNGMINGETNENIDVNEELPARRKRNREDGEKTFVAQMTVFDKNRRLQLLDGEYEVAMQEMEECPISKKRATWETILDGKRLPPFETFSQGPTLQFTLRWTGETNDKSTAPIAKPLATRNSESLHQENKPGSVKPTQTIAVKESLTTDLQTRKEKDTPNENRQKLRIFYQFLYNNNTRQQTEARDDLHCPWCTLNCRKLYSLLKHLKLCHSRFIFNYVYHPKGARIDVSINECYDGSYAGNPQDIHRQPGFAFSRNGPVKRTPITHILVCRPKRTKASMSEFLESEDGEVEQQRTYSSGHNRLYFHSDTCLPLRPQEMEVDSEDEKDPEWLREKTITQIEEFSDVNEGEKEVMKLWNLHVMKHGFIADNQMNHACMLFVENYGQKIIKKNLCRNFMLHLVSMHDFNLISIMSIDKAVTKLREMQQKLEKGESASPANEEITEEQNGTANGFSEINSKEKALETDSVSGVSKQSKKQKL
T9 sequence (Q09028 whole entry partner): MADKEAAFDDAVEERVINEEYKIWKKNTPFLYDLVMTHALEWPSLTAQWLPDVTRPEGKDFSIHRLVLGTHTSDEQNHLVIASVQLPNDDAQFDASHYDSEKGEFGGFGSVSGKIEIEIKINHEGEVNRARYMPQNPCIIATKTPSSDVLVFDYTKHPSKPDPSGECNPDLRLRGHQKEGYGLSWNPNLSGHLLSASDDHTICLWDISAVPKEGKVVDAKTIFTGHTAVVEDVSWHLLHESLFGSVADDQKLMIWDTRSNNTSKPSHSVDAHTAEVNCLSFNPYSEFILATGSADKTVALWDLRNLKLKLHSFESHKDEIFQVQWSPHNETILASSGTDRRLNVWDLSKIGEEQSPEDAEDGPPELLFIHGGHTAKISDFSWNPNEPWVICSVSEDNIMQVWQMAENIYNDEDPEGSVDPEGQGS
T9 sequence (Q6ZN18 whole entry partner): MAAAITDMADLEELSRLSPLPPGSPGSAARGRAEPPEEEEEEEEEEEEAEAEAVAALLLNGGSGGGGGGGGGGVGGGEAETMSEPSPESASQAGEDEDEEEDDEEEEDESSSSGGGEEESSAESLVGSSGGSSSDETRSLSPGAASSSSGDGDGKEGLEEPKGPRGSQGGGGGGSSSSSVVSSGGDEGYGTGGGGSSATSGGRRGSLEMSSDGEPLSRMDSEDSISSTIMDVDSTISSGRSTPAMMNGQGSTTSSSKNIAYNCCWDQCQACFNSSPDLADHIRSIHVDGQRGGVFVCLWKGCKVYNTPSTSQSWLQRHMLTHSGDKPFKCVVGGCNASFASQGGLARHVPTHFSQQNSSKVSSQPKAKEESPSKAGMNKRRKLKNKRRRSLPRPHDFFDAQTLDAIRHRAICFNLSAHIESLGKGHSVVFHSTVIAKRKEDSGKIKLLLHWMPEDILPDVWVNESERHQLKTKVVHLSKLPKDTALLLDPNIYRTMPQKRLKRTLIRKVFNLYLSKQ

TAF1 = molecular target: T10, TAF1 (Homo sapiens, UniProt P21675); experiment: Epigenetics selectivity panel (BPS Bioscience); type: binding
T10 construct: purchased DiscoverX KINOMEscan (kinases); BPS Bioscience (epigenetic targets)

| SMILES | GI50 (1205-LU) [nM] | GI50 (MM1.R) [nM] | inhibition at 10 µM (Human HDAC1) [%] | inhibition at 10 µM (JMJD2D) [%] | GI50 697 [nM] | CC50 at 72 h (in vitro) [nM] | GI50 (COLO-205) [nM] | inhibition at 10 µM (PRMT6) [%] | inhibition at 10 µM (JMJD2C) [%] | P450s Inhibition: 2D6 (cytochrome P450 2D6) [%] | P450s Inhibition: 2C9 (cytochrome P450 2C9) [%] | P450s Inhibition: 2C19 (cytochrome P450 2C19) [%] | P450s Inhibition: 3A4 (cytochrome P450 3A4) [%] | GI50 (MY) [nM] | GI50 (U87-MG) [nM] | GI50 (CAKI-2) [nM] | GI50 (H1299) [nM] | GI50 (OPM2) [nM] | inhibition at 10 µM (EZH2) [%] | inhibition at 10 µM (TAF1) [%] | also measured |
| --- | --- | --- | --- | --- | --- | --- | --- | --- | --- | --- | --- | --- | --- | --- | --- | --- | --- | --- | --- | --- | --- |
| COc1cc2c(NCC3CCN(C)CC3)cc(-c3ccc(C)o3)nc2cc1OCCCN1CCCC1 [CM-579, 6-methoxy-2-(5-methyl-2-furyl)-N-[(1-methyl-4-piperidyl)methyl]-7-(3-pyrrolidin-1-ylpropoxy)quinolin-4-amine] | 20 | 2110 | 0 | 25 | 4280 | 7390 | 275 | 40 | 13 | < 10 | < 10 | < 10 | < 10 | 3950 | 118 | 304 | 547 | > 5000 | 0 | 4 |  |
| COc1cc2c(NC3CCN(C)CC3)cc(-c3ccc(C)o3)nc2cc1OCCCN1CCCC1 [CM-272, 6-methoxy-2-(5-methyl-2-furyl)-N-(1-methyl-4-piperidyl)-7-(3-pyrrolidin-1-ylpropoxy)quinolin-4-amine] | 121 | 980 | 0 | 5 | 913 | 1900 | 679 | 82 | 12 | < 10 | < 10 | < 10 | < 10 | 816 | 294 | 2920 | 1060 | 2610 | 1 | 0 | pIC50 (PRMT6; BPS): 5.52 |
